In ChEMBL document CHEMBL1201862, “PubChem BioAssay data set” (2004):
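A five-concentration, 48-hour dose response in 96-well plates underlies each endpoint, interpolated linearly between surrounding concentrations. The concentration for 50% growth inhibition is given as GI50.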 Activity calls are given as the source filed them. No stated cut-off is given here; in the data, active = GI50 up to about 1.1 µM and inactive = higher.

Columns and labels:
Assay in all cases: inhibition of tumour cell growth, NCI panel, 48 h
786-0 = tested on: 786-0
A498 = tested on: A498
A549 = tested on: A549
ACHN = tested on: ACHN
CCRF-CEM = tested on: CCRF-CEM
COLO 205 = tested on: COLO 205
DLD-1 = tested on: DLD-1
DMS-114 = tested on: DMS-114
DMS-273 = tested on: DMS-273
EKVX = tested on: EKVX
HCC 2998 = tested on: HCC 2998
HCT-116 = tested on: HCT-116
HCT-15 = tested on: HCT-15
HL-60 = tested on: HL-60
HOP-62 = tested on: HOP-62
HOP-92 = tested on: HOP-92
HT-29 = tested on: HT-29
IGROV-1 = tested on: IGROV-1
K562 = tested on: K562
KM12 = tested on: KM12
LOX IMVI = tested on: LOX IMVI
LXFL 529 = tested on: LXFL 529
M14 = tested on: M14
M19-MEL = tested on: M19-MEL
MOLT-4 = tested on: MOLT-4
Malme-3M = tested on: Malme-3M
NCI-H226 = tested on: NCI-H226
NCI-H23 = tested on: NCI-H23
NCI-H460 = tested on: NCI-H460
NCI-H522 = tested on: NCI-H522
OVCAR-3 = tested on: OVCAR-3
OVCAR-4 = tested on: OVCAR-4
OVCAR-5 = tested on: OVCAR-5
OVCAR-8 = tested on: OVCAR-8
RPMI-8226 = tested on: RPMI-8226
RXF 393 = tested on: RXF 393
SF-268 = tested on: SF-268
SF-295 = tested on: SF-295
SF-539 = tested on: SF-539
SK-MEL-28 = tested on: SK-MEL-28
SK-MEL-2 = tested on: SK-MEL-2
SK-MEL-5 = tested on: SK-MEL-5
SK-OV-3 = tested on: SK-OV-3
SN12C = tested on: SN12C
SNB-19 = tested on: SNB-19
SNB-75 = tested on: SNB-75
SNB-78 = tested on: SNB-78
SR = tested on: SR
SW-620 = tested on: SW-620
TK-10 = tested on: TK-10
U-251 = tested on: U-251
UACC-257 = tested on: UACC-257
UACC-62 = tested on: UACC-62
UO-31 = tested on: UO-31
BT-549 = tested on: BT-549
CAKI-1 = tested on: CAKI-1
DU-145 = tested on: DU-145
Hs-578T = tested on: Hs-578T
MCF7 = tested on: MCF7
MDA-MB-231 = tested on: MDA-MB-231
MDA-MB-435 = tested on: MDA-MB-435
MDA-N = tested on: MDA-N
NCI/ADR-RES = tested on: NCI/ADR-RES
PC-3 = tested on: PC-3
T47D = tested on: T47D

In the case of `O=[N+]([O-])c1ccc2occ3c2c1CCC3`, the GI50 (786-0) was > 100 µM (inactive), the GI50 (A498) was > 100 µM (inactive) and the GI50 (A549) was > 100 µM (inactive). For the same molecule, the GI50 (ACHN) was > 100 µM (inactive), the GI50 (CCRF-CEM) was > 100 µM (inactive) and the GI50 (COLO 205) was > 100 µM (inactive). For the same molecule, the GI50 (DLD-1) was > 100 µM (inactive), the GI50 (DMS-114) was > 100 µM (inactive) and the GI50 (DMS-273) was > 100 µM (inactive). For the same molecule, the GI50 (EKVX) was > 100 µM (inactive), the GI50 (HCC 2998) was > 100 µM (inactive) and the GI50 (HCT-116) was > 100 µM (inactive). For the same molecule, the GI50 (HCT-15) was over 100 µM, the GI50 (HL-60) was > 100 µM (inactive) and the GI50 (HOP-62) was > 100 µM (inactive). For the same molecule, the GI50 (HOP-92) was 35.2 µM (inactive), the GI50 (HT-29) was > 100 µM (inactive) and the GI50 (IGROV-1) was > 100 µM (inactive). For the same molecule, the GI50 (K562) was > 100 µM (inactive), the GI50 (KM12) was > 100 µM (inactive) and the GI50 (LOX IMVI) was > 100 µM (inactive). The GI50 (LXFL 529) was > 100 µM (inactive), the GI50 (M14) was > 100 µM (inactive) and the GI50 (M19-MEL) was > 100 µM (inactive). The GI50 (MOLT-4) was > 100 µM (inactive), the GI50 (Malme-3M) was > 100 µM (inactive) and the GI50 (NCI-H226) was 40 µM (inactive). For the same molecule, the GI50 (NCI-H23) was > 100 µM (inactive), the GI50 (NCI-H460) was > 100 µM (inactive) and the GI50 (NCI-H522) was > 100 µM (inactive). For the same molecule, the GI50 (OVCAR-3) was > 100 µM (inactive), the GI50 (OVCAR-4) was > 100 µM (inactive) and the GI50 (OVCAR-5) was 86.1 µM (inactive). The GI50 (OVCAR-8) was > 100 µM (inactive), the GI50 (RPMI-8226) was > 100 µM (inactive) and the GI50 (RXF 393) was > 100 µM (inactive). For the same molecule, the GI50 (SF-268) was > 100 µM (inactive), the GI50 (SF-295) was > 100 µM (inactive) and the GI50 (SF-539) was > 100 µM (inactive). For the same molecule, the GI50 (SK-MEL-28) was > 100 µM (inactive), the GI50 (SK-MEL-2) was > 100 µM (inactive) and the GI50 (SK-MEL-5) was > 100 µM (inactive). For the same molecule, the GI50 (SK-OV-3) was > 100 µM (inactive), the GI50 (SN12C) was > 100 µM (inactive) and the GI50 (SNB-19) was > 100 µM (inactive). The GI50 (SNB-75) was 24.4 µM (inactive), the GI50 (SNB-78) was > 100 µM (inactive) and the GI50 (SR) was > 100 µM (inactive). The GI50 (SW-620) was > 100 µM (inactive), the GI50 (TK-10) was > 100 µM (inactive) and the GI50 (U-251) was > 100 µM (inactive). The GI50 (UACC-257) was > 100 µM (inactive), the GI50 (UACC-62) was > 100 µM (inactive) and the GI50 (UO-31) was 71.6 µM (inactive).
`CC(C)C(Br)CC/C(CBr)=C(\Cl)CCl` (configuration not stated) was tested, and the GI50 (786-0) was 1.81 µM (inactive), the GI50 (A498) was 18.6 µM (inactive) and the GI50 (A549) was 16.3 µM (inactive). The GI50 (ACHN) was 15 µM (inactive), the GI50 (BT-549) was 1.78 µM (inactive) and the GI50 (CAKI-1) was 4.98 µM (inactive). The GI50 (CCRF-CEM) was 0.135 µM (active), the GI50 (COLO 205) was 3.4 µM (inactive) and the GI50 (DU-145) was 12.6 µM (inactive). The GI50 (EKVX) was 17.9 µM (inactive), the GI50 (HCC 2998) was 13.4 µM (inactive) and the GI50 (HCT-116) was 2 µM (inactive). The GI50 (HCT-15) was 2.11 µM, the GI50 (HL-60) was 0.585 µM (active) and the GI50 (HOP-62) was 16.3 µM (inactive). For the same molecule, the GI50 (HOP-92) was 2.06 µM (inactive), the GI50 (HT-29) was 2.07 µM (inactive) and the GI50 (Hs-578T) was 3.11 µM (inactive). For the same molecule, the GI50 (IGROV-1) was 1.89 µM (inactive), the GI50 (K562) was 0.682 µM (active) and the GI50 (KM12) was 5.61 µM (inactive). The GI50 (LOX IMVI) was 0.355 µM (active), the GI50 (M14) was 1.79 µM (inactive) and the GI50 (MCF7) was 6.15 µM (inactive). For the same molecule, the GI50 (MDA-MB-231) was 2.64 µM (inactive), the GI50 (MDA-MB-435) was 2.35 µM (inactive) and the GI50 (MDA-N) was 1.85 µM (inactive). For the same molecule, the GI50 (MOLT-4) was 0.589 µM (active), the GI50 (Malme-3M) was 5.37 µM (inactive) and the GI50 (NCI-H226) was 2.75 µM (inactive). The GI50 (NCI-H23) was 3.19 µM (inactive), the GI50 (NCI-H460) was 12.5 µM (inactive) and the GI50 (NCI-H522) was 0.689 µM (active). The GI50 (NCI/ADR-RES) was 3.33 µM (inactive), the GI50 (OVCAR-3) was 3.3 µM (inactive) and the GI50 (OVCAR-4) was 2.5 µM (inactive). For the same molecule, the GI50 (OVCAR-5) was 10.4 µM (inactive), the GI50 (OVCAR-8) was 3.1 µM (inactive) and the GI50 (PC-3) was 6.08 µM (inactive). The GI50 (RPMI-8226) was 2 µM (inactive), the GI50 (RXF 393) was 1.81 µM (inactive) and the GI50 (SF-268) was 4.37 µM (inactive). The GI50 (SF-295) was 15.1 µM (inactive), the GI50 (SF-539) was 3.59 µM (inactive) and the GI50 (SK-MEL-28) was 2.83 µM (inactive). For the same molecule, the GI50 (SK-MEL-2) was 2.19 µM (inactive), the GI50 (SK-MEL-5) was 1.79 µM (inactive) and the GI50 (SK-OV-3) was 2.94 µM (inactive). The GI50 (SN12C) was 2.99 µM (inactive), the GI50 (SNB-19) was 16.9 µM (inactive) and the GI50 (SNB-75) was 5.19 µM (inactive). For the same molecule, the GI50 (SR) was 0.598 µM (active), the GI50 (SW-620) was 1.82 µM (inactive) and the GI50 (T47D) was 1.63 µM (inactive). The GI50 (TK-10) was 7.93 µM (inactive), the GI50 (U-251) was 6.25 µM (inactive) and the GI50 (UACC-257) was 3.03 µM (inactive). The GI50 (UACC-62) was 2.49 µM (inactive) and the GI50 (UO-31) was 6.71 µM (inactive).
`OC(c1ccc(-c2ccccc2)cc1)C(F)(F)c1nc2ccccc2o1` (configuration not stated) was tested, and the GI50 (786-0) was 25.9 µM (inactive), the GI50 (A498) was 9.12 µM (inactive) and the GI50 (A549) was 40.4 µM (inactive). For the same molecule, the GI50 (ACHN) was 56.6 µM (inactive), the GI50 (BT-549) was > 96.4 µM (inactive) and the GI50 (CAKI-1) was 25.1 µM (inactive). For the same molecule, the GI50 (CCRF-CEM) was > 45 µM (inactive), the GI50 (COLO 205) was > 74 µM (inactive) and the GI50 (DU-145) was 26.5 µM (inactive). The GI50 (EKVX) was > 73.3 µM (inactive), the GI50 (HCC 2998) was > 100 µM (inactive) and the GI50 (HCT-116) was 45.2 µM (inactive). The GI50 (HCT-15) was over 100 µM, the GI50 (HL-60) was 15.5 µM (inactive) and the GI50 (HOP-62) was 30.7 µM (inactive). The GI50 (HOP-92) was 29.9 µM (inactive), the GI50 (HT-29) was > 68.1 µM (inactive) and the GI50 (Hs-578T) was 20.9 µM (inactive). The GI50 (IGROV-1) was 34 µM (inactive), the GI50 (K562) was 18.2 µM (inactive) and the GI50 (KM12) was 36.8 µM (inactive). The GI50 (LOX IMVI) was > 95.3 µM (inactive), the GI50 (M14) was > 100 µM (inactive) and the GI50 (MCF7) was 25.3 µM (inactive). For the same molecule, the GI50 (MDA-MB-231) was 17.5 µM (inactive), the GI50 (MDA-MB-435) was > 86.9 µM (inactive) and the GI50 (MDA-N) was > 100 µM (inactive). The GI50 (MOLT-4) was 28.5 µM (inactive), the GI50 (Malme-3M) was 91.8 µM (inactive) and the GI50 (NCI-H226) was > 48.3 µM (inactive). For the same molecule, the GI50 (NCI-H23) was 39.9 µM (inactive), the GI50 (NCI-H460) was 37.5 µM (inactive) and the GI50 (NCI-H522) was 25 µM (inactive). The GI50 (NCI/ADR-RES) was > 79.8 µM (inactive), the GI50 (OVCAR-3) was 35.8 µM (inactive) and the GI50 (OVCAR-4) was 18.6 µM (inactive). The GI50 (OVCAR-5) was > 100 µM (inactive), the GI50 (OVCAR-8) was 34.8 µM (inactive) and the GI50 (PC-3) was 65.9 µM (inactive). The GI50 (RPMI-8226) was 51.3 µM (inactive), the GI50 (RXF 393) was 16.4 µM (inactive) and the GI50 (SF-268) was 54.5 µM (inactive). The GI50 (SF-295) was 96.4 µM (inactive), the GI50 (SF-539) was 31.2 µM (inactive) and the GI50 (SK-MEL-28) was > 100 µM (inactive). The GI50 (SK-MEL-2) was > 100 µM (inactive), the GI50 (SK-MEL-5) was 65.3 µM (inactive) and the GI50 (SK-OV-3) was 37.2 µM (inactive). For the same molecule, the GI50 (SN12C) was 50.5 µM (inactive), the GI50 (SNB-19) was 49 µM (inactive) and the GI50 (SNB-75) was 27.8 µM (inactive). For the same molecule, the GI50 (SR) was 25.9 µM (inactive), the GI50 (SW-620) was > 100 µM (inactive) and the GI50 (T47D) was 31.8 µM (inactive). The GI50 (TK-10) was 38.3 µM (inactive), the GI50 (U-251) was 30.7 µM (inactive) and the GI50 (UACC-257) was 40.3 µM (inactive). For the same molecule, the GI50 (UACC-62) was > 78 µM (inactive) and the GI50 (UO-31) was 55 µM (inactive).
